Consider three compounds from PMC8659034, “Natural Xanthine Oxidase Inhibitor 5-O-Caffeoylshikimic Acid Ameliorates Kidney Injury Caused by Hyperuricemia in Mice” (Molecules, 2021).

Assay [1] deals with T1, xanthine oxidase (XOD) (Bos taurus, UniProt P80457).
T1 construct: gene XDH
The assay is described as follows: spectrophotometric uric acid formation assay at […] nm, % inhibition at […]. To be noted: read-out: % inhibition at 100 μg/mL. Format: biochemical.

In assay [2] the target is T1, xanthine oxidase (XOD). Description: spectrophotometric uric acid formation assay at […] nm; reversibility plots. Type of assay: biochemical.

T1 sequence (P80457 2-1332): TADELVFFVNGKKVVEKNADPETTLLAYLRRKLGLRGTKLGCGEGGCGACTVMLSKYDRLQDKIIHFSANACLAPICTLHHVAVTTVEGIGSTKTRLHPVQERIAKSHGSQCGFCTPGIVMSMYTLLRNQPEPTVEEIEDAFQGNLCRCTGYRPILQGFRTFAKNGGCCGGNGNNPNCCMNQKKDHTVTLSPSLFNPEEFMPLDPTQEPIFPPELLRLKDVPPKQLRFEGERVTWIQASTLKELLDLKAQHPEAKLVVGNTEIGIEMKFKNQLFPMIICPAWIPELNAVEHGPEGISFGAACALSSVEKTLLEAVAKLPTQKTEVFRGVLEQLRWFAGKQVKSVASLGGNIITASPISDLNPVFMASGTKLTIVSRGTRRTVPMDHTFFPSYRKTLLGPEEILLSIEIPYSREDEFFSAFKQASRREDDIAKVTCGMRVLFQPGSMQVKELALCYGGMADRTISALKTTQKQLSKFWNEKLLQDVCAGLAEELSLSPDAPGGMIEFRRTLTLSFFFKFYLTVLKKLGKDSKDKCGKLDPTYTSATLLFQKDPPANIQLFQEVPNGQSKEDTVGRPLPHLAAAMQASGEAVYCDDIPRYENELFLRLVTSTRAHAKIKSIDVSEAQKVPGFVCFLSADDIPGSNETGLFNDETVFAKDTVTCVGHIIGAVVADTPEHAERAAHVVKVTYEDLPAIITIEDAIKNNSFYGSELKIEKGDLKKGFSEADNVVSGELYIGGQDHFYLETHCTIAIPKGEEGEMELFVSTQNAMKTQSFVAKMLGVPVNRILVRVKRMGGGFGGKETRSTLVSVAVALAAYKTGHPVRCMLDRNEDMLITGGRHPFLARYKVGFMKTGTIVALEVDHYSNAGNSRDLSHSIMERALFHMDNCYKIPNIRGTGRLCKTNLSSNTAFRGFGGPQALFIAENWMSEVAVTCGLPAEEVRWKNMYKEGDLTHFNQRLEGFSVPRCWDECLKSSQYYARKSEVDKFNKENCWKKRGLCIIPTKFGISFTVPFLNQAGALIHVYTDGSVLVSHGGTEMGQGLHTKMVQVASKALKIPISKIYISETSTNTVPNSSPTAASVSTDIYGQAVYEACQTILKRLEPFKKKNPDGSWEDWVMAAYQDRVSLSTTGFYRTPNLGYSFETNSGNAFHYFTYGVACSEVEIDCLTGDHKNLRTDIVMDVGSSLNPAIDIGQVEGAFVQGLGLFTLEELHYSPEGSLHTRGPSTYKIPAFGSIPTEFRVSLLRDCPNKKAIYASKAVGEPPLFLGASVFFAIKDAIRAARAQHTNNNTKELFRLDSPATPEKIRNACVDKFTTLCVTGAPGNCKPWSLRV

Regarding `O=c1c(O)c(-c2ccc(O)c(O)c2)oc2cc(O)cc(O)c12` [compound 3, quercetin], the inhibition at 100 µg/mL at xanthine oxidase (XOD) [1] amounted to 82.1%. Take `O=C(/C=C/c1ccc(O)c(O)c1)O[C@@H]1CC(C(=O)O)=C[C@@H](O)[C@H]1O` [compound 1, 5-O-caffeoylshikimic acid]: the IC50 (in general, the concentration that gives 50% inhibition) on xanthine oxidase (XOD) [2] amounted to 14 µM. In the case of `C[C@@H]1O[C@@H](O[C@H]2C(=O)c3c(O)cc(O)cc3O[C@@H]2c2ccc(O)c(O)c2)[C@H](O)[C@H](O)[C@H]1O` [compound 6, astilbin], the inhibition at 100 µg/mL at xanthine oxidase (XOD) [1] stood at 33.2%.
